# Results reported in article PMC12749166, “Fragment-based drug design of a bacterial kinase inhibitor capable of increasing the antibiotic sensitivity of clinical isolates” (Communications Chemistry, 2025).
# Like-named read-outs stand apart in the source and are kept apart here.
# Tests used:
# APH(2”)-IVa [1] = target: T1, APH(2”)-IVa (Enterococcus casseliflavus, UniProt O68183); assay: biochemical; conditions: Ki (µM), inhibition constant, ATP-competitive; 0-2 mM MgATP, 100 µM kanamycin A, global fitting
# APH(2”)-IVa [2] = target: T1, APH(2”)-IVa; assay: biochemical; assay type: binding; conditions: read-out: ΔTm (°C)
# Protocol: Thermal shift assays were performed using an RTqPCR machine Mx3005P (Stratagene) in 96-well plates (Thermo-Fast low Profile, ThermoScientific) by mixing the protein at 5 µM, SYPRO® Orange (Sigma Aldrich) at […], and fragments at 500 µM. Fluorescence was followed with Cy3 and SYAL filters. Denaturation curves were collected using MxPro-Mx3005P v4.10 software and analyzed using the implemented version of wTSA-CRAFT[36].
# [3] = system: P. aeruginosa clinical isolates; assay: MIC by broth micro-dilution; assay type: cell-based; conditions: Pseudomonas aeruginosa, read-out: MIC
# S. aureus C0032 = assay: MIC by broth micro-dilution; assay type: cell-based; conditions: Staphylococcus aureus; S. aureus C0032, aph(3')-IIIa ant(6); read-out: MIC
# APH(2”)-IVa [4] = target: T1, APH(2”)-IVa; conditions: 500 µM; times more inhibition than F136
# [5] = P. aeruginosa C0214, aph(3')-IIb
# [6] = P. aeruginosa C0307, aph(3')-IIb
# T1 sequence (O68183 1-301): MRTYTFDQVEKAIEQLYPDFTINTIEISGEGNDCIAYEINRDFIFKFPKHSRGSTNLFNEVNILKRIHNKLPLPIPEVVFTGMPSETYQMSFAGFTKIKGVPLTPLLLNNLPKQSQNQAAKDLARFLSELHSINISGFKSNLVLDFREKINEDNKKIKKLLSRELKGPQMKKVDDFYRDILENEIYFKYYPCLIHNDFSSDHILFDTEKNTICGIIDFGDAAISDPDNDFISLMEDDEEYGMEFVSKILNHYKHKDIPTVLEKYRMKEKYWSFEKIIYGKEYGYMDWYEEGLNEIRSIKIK
SMILES,Ki (APH(2”)-IVa [1]) [µM],ΔTm at 500 µM (APH(2”)-IVa [2]) [°C],other results
NC(=O)c1c[nH]c2ncc(Cl)cc12 [Compound 80],10.3,–,–
O=C(NCCc1ccn(-c2ccccc2)n1)c1cc(NC2CC2)ncc1Cl [Compound 36-9],13.4,–,–
Nc1ncc(Cl)cc1S(=O)(=O)NC1CCCNC1 (centres unmarked) [Compound 23],–,0.33,–
O=C(O)c1c[nH]c2ncc(Cl)cc12 [Compound 79],27.5,–,–
O=Cc1cncc(-c2cc[nH]n2)c1 [Compound 66],–,0.54,–
Clc1cnc2[nH]ccc2c1-c1ccc[nH]1 [Compound 85],1.74,–,–
"c1cnc2[nH]ccc2c1 [Compound F136, 7-azaindole]",–,0.06,–
NCCNC(=O)c1cc(NC2CC2)ncc1Cl [Compound 36-8],16.3,–,–
O=C(NCCO)c1cc(NC2CC2)ncc1Cl [Compound 36-5],25.6,–,–
O=C(Nc1ccc(Cl)cc1)Nc1ccc(Cl)cn1 [Compound 6],–,0.17,–
NCC[C@H](O)C(=O)N[C@@H]1C[C@H](N)[C@@H](O[C@H]2O[C@H](CN)[C@@H](O)[C@H](O)[C@H]2O)[C@H](O)[C@H]1O[C@H]1O[C@H](CO)[C@@H](O)[C@H](N)[C@H]1O [Amikacin],–,–,"MIC [3, 5]: 8 to 32 µg/mL; MIC [3, 6]: 4 to 8 µg/mL; MIC (S. aureus C0032): 16 to 32 µg/mL"
C[C@@H](O)[C@H]1C(=O)N2C(C(=O)O)=C(S[C@@H]3CN[C@H](C(=O)N(C)C)C3)[C@H](C)[C@H]12 [Meropenem],–,–,"MIC [3, 5]: 0.5 to 1 µg/mL; MIC [3, 6]: 0.063 to 0.125 µg/mL; MIC (S. aureus C0032): > 4 µg/mL"
Clc1cnc2[nH]ccc2c1-c1cn[nH]c1 [Compound 84],1.58,–,–
"Clc1cnc2[nH]ccc2c1 [Compound 2, 5-chloro-7-azaindole]",9.63,–,Inhibition relative to F136 (APH(2”)-IVa [4]): 5.9 times
"OCc1c[nH]c2ncccc12 [Compound F355, 3-hydroxymethyl-7-azaindole]",–,-0.41,–
CNC(C)C1CCC(N)C(OC2C(N)CC(N)C(OC3OCC(C)(O)C(NC)C3O)C2O)O1 (centres unmarked) [Gentamicin],–,–,"MIC [3, 5]: 2 µg/mL; MIC [3, 6]: 2 µg/mL; MIC (S. aureus C0032): < 1 µg/mL"
Nc1ncc(Cl)cc1S(=O)(=O)N1CCCCC1c1ncc[nH]1 (centres unmarked) [Compound 24],–,1.99,–
CNC(=O)c1c[nH]c2ncc(Cl)cc12 [Compound 81],9.47,–,–
Nc1cc(-c2ccn[nH]2)ccn1 [Compound 68],81.9,1.29,–
NC(=O)CNC(=O)c1cc(NC2CC2)ncc1Cl [Compound 36-3],32.3,–,–
COC(=O)c1cncc(-c2cc[nH]n2)c1 [Compound 67],–,1.16,–
CC(=O)c1cc2ccccc2oc1=O [Compound F144],–,0.09,–
Nc1cncc(-c2cc[nH]n2)c1 [Compound 58],–,1.18,–
CC1CCCN(S(=O)(=O)c2cc(Cl)cnc2N)C1CN (centres unmarked) [Compound 22],–,0.2,–
C[C@@H](O)[C@H]1C(=O)N2C(C(=O)O)=C(S[C@@H]3CN[C@H](CNS(N)(=O)=O)C3)[C@H](C)[C@H]12 [Doripenem],–,–,"MIC [3, 5]: 0.5 to 1 µg/mL; MIC [3, 6]: 0.25 µg/mL; MIC (S. aureus C0032): > 4 µg/mL"
